Experimental data taken from patent publication US12162935B2, “Regimens, compositions and methods with capsaicin and TNF-alpha inhibitor” (priority 2018, dated 2024).

Columns and labels:
[1] = system: rat cochlea; test: Immunolabelling of mid-modiolar cochlear sections, fluorescent intensity analyses; assay type: in vivo
Procedure: Cochleae were perfused with a 4% paraformaldehyde solution, cochleae were decalcified for 7-10 days in 120 mM EDTA, embedded them in paraffin and then sectioned the specimens [Mukherjea et al., 2010]. Slides were deparaffined, rehydrated and then stained with primary and secondary antibodies. Glass coverslips were mounted on the specimens with ProLong Diamond mounting medium. Images were obtained using a Leica confocal microscope (Buffalo Grove, IL).
Image J software was used to analyze the mean gray area for the various images. These values were then used to quantify the increase or decrease in % fluorescence intensity of the various regions of the samples compared to control.

[2] = system: UMSCC-10b cells; test: SCID mouse xenograft model; assay type: in vivo
Procedure: SCID mice (from Envigo, 5-6 weeks of age) were injected subcutaneously with 1.5×10^6 mycoplasma-free UMSCC 10B cells in one flank. […] At the time of each treatment, tumor volumes were calculated based on the formula: volume=width2×(length/2) [Jajoo et al.]. Mice were killed 24 h after the eleventh treatment. All procedures were performed in accordance with relevant guidelines and regulations of SIU School of Medicine.

[3] = system: UB/OC-1 cells; test: Western blot of STAT1, STAT3 and JAK2 phosphorylation; assay type: cell-based, mouse
[4] = system: Wistar rats; test: ABR threshold shifts, cisplatin-induced hearing loss; assay type: in vivo, rat
Procedure: Adult male Wistar rats (200-350 g) (from Envigo) were used for this study. Rats were housed in a temperature controlled room with a twelve hour light/dark cycle. They had free access to commercial food and water provided by the SIU Laboratory Animal Care facility.
Prior to experiments, rats were anesthetized with ketamine HCl/xylazine mixture (24.6/3 mg/kg) and then placed in a sound-attenuation chamber (Industrial Acoustic Company, Inc.). Body temperature of the rats was maintained at 37° C. with an animal blanket system. Pretreatment auditory brainstem responses (ABRs) was performed using an IHS-High-frequency System (Intelligent Hearing Systems, Miami, FL). The rats were exposed to acoustic stimuli via HIS transducers that were directly placed at the entrance of the ear canal. ABR thresholds were obtained for 5 ms duration tone bursts at 8, 16 and 32 kHz at a rate of 50/s. Thresholds were determined by visually produced lowest intensity evoked potentials (EP) that progressed in 10 dB steps. Evoked potentials (Eps) were amplified to 200,000×, and were band pass filtered (100-3000 Hz) and averaged over 1024 sweeps [Mukherjea et al., 2010].
At the end of auditory testing, the anesthetized animals were decapitated and the cochlea harvested. The SIU Laboratory Animal Care and Use Committee approved all animal procedures.
Male Wistar rats were anesthetized using ketamine/xylazine cocktail. The tympanic membrane was punctured as described in [Mukherjea et al., 2010].

[5] = system: outer hair cells (OHCs); test: Outer hair cell damage by SEM and whole mount hair cell count; assay type: in vivo, rat
From the text: Immediately after completion of post-treatment ABRs, rats were euthanized and their cochleae were harvested and the specimens processed as described previously by [Kamimura et al.]. Sputter-coated cochlea were viewed and photographed with a Hitachi S-500 scanning electron microscope (Hitachi Ltd.). The resulting scanning electron micrographs were examined to determine qualitative morphological characteristics in various regions including the basal, middle, and apical turns of the rat cochlea.
Two representative areas of the basal turn, middle turn, and apex and hook portion were photographed. In each area, outer hair cells (OHCs) were counted in an area that was 10 pillar cell heads in length. The results are presented as the percentage hair cell damage per cochlear turn. At least three cochleae from different animals per treatment group were used.
To study the organization of the outer hair cells and inner hair cells, the cochlear whole mount technique was used. The cochleae was fixed in fresh 4% paraformaldehyde overnight, and then decalcified in […] EDTA for 2 weeks, (pH 7.3) while stirring at room temperature for 2 weeks. After decalcification, the cochleae was microdissected into basal, middle, and apical turns for whole-mount preparation.
For further processing, segments were washed with 1×PBS twice for 5 mins. For blocking, the segments were incubated in 10% blocking serum (horse serum) for 3 hrs at room temperature. The segments were incubated with primary antibody in 0.2% Triton prepared in PBS and refrigerated overnight. The following day, the segments were washed in PBS (three washes) for 5 mins each wash. The segments were washed in secondary antibody for 2 hrs at room temperature in the dark. The antibodies were then washed with PBS (three washes). Glass coverslips were then mounted on the segments with ProLong Diamond Antifade Mountant (Thermo Fisher Scientific) and incubated them at room temperature overnight and then stored them in 4 degrees. Images were procured using a Leica confocal microscope (Buffalo Grove, IL).
For hair cell count in whole mount preparations, two to three random areas from the basal turn from each treatment group separately were selected. Hair cells were counted in […] segments of the cochlea respectively. Counts were averaged across treatment group. This was further normalized as % of PBS (control) by taking the values of control as 100%.

[6] = system: Wistar rats; test: Restoration of hearing after permanent threshold shifts (Example 10B); assay type: in vivo, rat; conditions: treatment after PTS at 4 weeks; oral capsaicin 5 mg/kg 3 days, ETA 1 mg/kg s.c. day 2, three weeks
Procedure: FIG. 23A is a schematic showing the experimental paradigm used in Example 10B. Pre-treatment baseline ABRs were performed in naïve male Wistar rats. The rats were then used either as sham controls (no noise exposure) or exposed-noise (122 dB, OBN centered at 16 kHz for 1 hour). Post noise exposure ABRs were repeated at 4 weeks to establish permanent threshold shifts (PTS). […] Final ABR threshold values were evaluated at week 9 post noise exposure.
Values shown in FIGS. 23A-23C and otherwise provided with respect to this Example 10B are expressed as the mean±SEM. Statistical significance was analyzed using the ANOVA and Tukey's host hoc analysis.

[7] = system: rat cochlea; test: Cochlear gene expression by q-PCR (cisplatin study); assay type: in vivo
[8] = capsaicin 2.5 μM 30 min and/or cisplatin 2.5 μM 45 min (FIG. 5.E)

COc1cc(CNC(=O)CCCC/C=C/C(C)C)ccc1O [capsaicin, 8-methyl-N-vanillyl-trans-6-nonenamide]
TRPV1, NOX3 and iNOS protein expression induced by cisplatin ([1]; capsaicin pre-treatment): significantly decreased | CB2 expression in three regions of the cochleae ([1]; capsaicin pretreatment before cisplatin): significantly increased the expression of CB2 | p-STAT3/p-STAT1 ratio in cochlear regions ([1]; oral capsaicin pretreatment, compared to cisplatin): significantly increased | CB2 labelling in the OHCs, SGs and SVA ([1]; single agent): increased CB2 labelling in all the three regions to an even greater extent | TRPV1, NOX3 and iNOS labelling in the OHCs, SG and SVA ([1]; single agent vs control): did not produce significant change | p-STAT3/p-STAT1 ratio in cochlear regions ([1]; single agent, 72 h, vs oral PBS): increased the p-STAT3/p-STAT1 ratio in all the three regions of the organ of Corti significantly | cisplatin tumor growth curves ([2]; oral capsaicin 0.5 mg/kg + cisplatin 2 mg/kg ip): shifted the cisplatin tumor growth curves to the right | tumor growth (volume, size, weight) ([2]; single agent: cisplatin 2 mg/kg ip or oral capsaicin 0.5 mg/kg): decreased tumor size and weight, but not significantly | JAK2 phosphorylation ([3]; 2.5 μM, time course): increased activation | p-STAT1 [3, 8]: 135.4±4% | p-STAT3 [3, 8]: 173±4% | p-STAT3/p-STAT1 ratio peak value ([3]; capsaicin 2.5 μM, reached in 45 min): ~130% | time of peak STAT1 Ser^727 phosphorylation ([3]; capsaicin 2.5 μM, returns to baseline by 120 min): 45 min | p-STAT3/p-STAT1 ratio ([3]; of control (FIG. 5.F)): 128±4.1% | ABR threshold shifts produced by cisplatin ([4]; TT-capsaicin 50 μl of 0.1 μM 24 h prior to cisplatin 11 mg/kg ip, 72 h, 8, 16 and 32 kHz): significantly reduced ABR threshold shifts | ABR thresholds ([4]; TT-capsaicin alone, 72 h, vs TT vehicle): did not significantly alter ABR thresholds | ABR threshold ([4]; capsaicin alone by trans-tympanic injection or oral gavage, 72 h): did not significantly alter ABR threshold | protection against cisplatin-induced ABR threshold shifts ([4]; oral capsaicin 5 mg/kg 24 h prior to cisplatin): did not protect | cisplatin ABR threshold shift ([4]; oral capsaicin 20 mg/kg 24 h prior to cisplatin (FIG. 11.B)): abrogated | protection against cisplatin-induced ABR threshold shifts ([4]; oral capsaicin 10 or 20 mg/kg 24 h prior to cisplatin): Significant protection | stereociliary damage induced by cisplatin ([5]; SEM, oral capsaicin): significantly reduced | loss of outer hair cells ([5]; SEM, trans-tympanic capsaicin pretreatment, cisplatin): no significant loss of outer hair cells | hair cell damage ([5]; whole mount, oral capsaicin alone): minimal hair cell damage | outer hair cell loss compared to control ([5]; whole mount, oral capsaicin prior to cisplatin): no significant outer hair cell loss | average hearing threshold shifts at 9 weeks [6]: 15-25 dB | expression of TRPV1, NOX3 and iNOS ([7]; TT-capsaicin 24 h prior to cisplatin): significant reduction | expression of TRPV1, NOX3 and iNOS ([7]; capsaicin alone): did not significantly change | CB2 receptor expression in the rat cochlea ([7]; oral capsaicin): increased the expression of CB2 receptor | Bax/Bcl-2 ratio, rat cochlea ([7]; oral capsaicin prior to cisplatin): significant decrease | Bax/Bcl-2 ratio, rat cochlea ([7]; single agent (cisplatin or oral capsaicin alone)): less than half of that observed following cisplatin alone
